Calls of active or inactive are those of the source. The rule behind the calls is not given here.
Columns and labels:
Rattus norvegicus = species on record: Rattus norvegicus; assay: Binding affinity to GABAB receptor gamma-hydroxybutyric acid binding site in UV irradiated rat cerebral cortex synaptic membranes assessed as covalent binding at 100 nM after 1 hr by gamma-hydroxybutyric acid displacement assay; type: tissue-based; details: tested as the 125I-labelled form
[1] = Displacement of [3H]NCS-382 from GABAB receptor gamma-hydroxybutyric acid binding site in rat cerebral cortex synaptic membranes after 1 hr by liquid scintillation counting; type: cell membranes, Membrane

Activity (Rattus norvegicus)	Ki [1] [nM]	SMILES
Active	120	[N-]=[N+]=Nc1ccc(I)cc1COc1ccc(C(O)CCC(=O)O)cc1 (centres undefined)
	75	O=C(O)CCC(O)c1ccc(OCc2cccc(I)c2)cc1 (centres undefined)
	186	[N-]=[N+]=Nc1ccc(COc2ccc(C(O)CCC(=O)O)cc2)cc1I (centres undefined)
